For the assay, the target named is T1, human OX2R (Homo sapiens, UniProt O43614).
T1 construct: expressed in transfected cells; host or cells: CHO (Chinese hamster ovary) cells, grown under G418 selection
T1 sequence (O43614 1-444): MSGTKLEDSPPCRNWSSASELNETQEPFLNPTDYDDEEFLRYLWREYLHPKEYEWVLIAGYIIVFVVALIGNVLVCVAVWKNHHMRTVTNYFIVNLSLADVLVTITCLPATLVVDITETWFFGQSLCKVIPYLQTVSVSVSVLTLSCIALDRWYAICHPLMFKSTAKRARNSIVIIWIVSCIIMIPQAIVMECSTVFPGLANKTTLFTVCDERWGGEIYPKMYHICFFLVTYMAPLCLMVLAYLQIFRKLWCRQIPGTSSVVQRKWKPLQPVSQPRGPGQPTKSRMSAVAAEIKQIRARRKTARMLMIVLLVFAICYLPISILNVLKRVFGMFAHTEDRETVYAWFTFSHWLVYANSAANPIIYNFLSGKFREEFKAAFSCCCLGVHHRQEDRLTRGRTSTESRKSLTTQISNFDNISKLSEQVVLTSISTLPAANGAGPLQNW
Nature of the assay: IP-One (IPOne) orexin receptor agonist assay in CHO cells expressing human OX2R. Type of assay: cell-based. The settings on record: for EC50: CHO cells expressing human OX2R, IP-One IP-1 detection, 2 hours incubation, four parameter logistic fit, read-out: OX2R Potency, EC50; for % of reference agonist maximal effect: human OX2R, percentage of sample raw value/mean max effect (reference compound at 1 uM with 100% activity). An excerpt: The utility of the compounds in accordance with the present invention as orexin receptor OX1R and/or OX2R agonists may be readily determined without undue experimentation by methodology well known in the art. Both the OX1R and/or OX2R G-coupled protein receptors (GPCRs) couple through the Gαq signaling pathway, which ultimately promotes calcium mobilization via inositol triphosphate (IP3) production. The half-life of IP-3 is relatively short, being rapidly metabolized to inositol monophosphate (IP-1), which can be readily detected using a commercially available assay kit (IP-One; Cisbio; cat #621PAPEC) coupled with a cell line expressing the target receptor(s) of interest. The utility of the compounds in accordance with the present invention as orexin receptor OX1R and/or OX2R agonists may be determined utilizing this assay.
In a typical experiment, the OX1 and OX2 receptor agonist activity is determined in accordance with the following general experimental method. Chinese hamster ovary (CHO) cells expressing human OX1R and/or the human OX2R were grown in Iscove's modified DMEM containing glutaMAX™, 1% G418, 100 U/mL penicillin, 100 μg/mL streptomycin and 10% heat-inactivated qualified fetal bovine serum (FBS). The OX2R cells were seeded at 10,000 cells/well/50 μL and the OX1R cells were seeded at 20,000 cells/well/50 μL into 384-well white tissue culture plates (Greiner; cat #781080). All cell/media reagents were from GIBCO-Invitrogen Corp. The seeded cell plate(s) were incubated at 37° C. with 5% CO2 and 85% humidity for 20-24 hours. On the day of the assay, assay-ready compound plates were prepared using an acoustic liquid handler (ECHO; Labcyte), which dispensed sufficient volume of test compound stock (10 mM in DMSO) or 100% DMSO to prepare 10 point, ½-log dilutions in a final volume of 202.5 nL/well in all test wells of a 384-well diamond plate (Labcyte). Following completion of assay-ready plates, importantly, the next three steps were performed with minimal delay: 1) 20 μl of 1× stimulation buffer was added to the compound plate using a Multidrop Combi (small cassette, Thermo Fisher Scientific cat #24073290); 2) culture medium was removed from the cell plate using the Bluewasher plate washer (gentle spin; BlueCatBio); 3) 14 μl of compound/stimulation buffer mixture was added to the cell plate using a Bravo liquid handler (Agilent) prior to incubating cell plates at 37° C. with 5% CO2 and 85% humidity for 1 or 2 hours (OX1R and OX2R, respectively). During this incubation, IP-one detection reagents were prepared (38:1:1 lysis buffer:D2:AB-cryptate reagents). Six μL of mixed detection reagents were added to the cell plate using a Multidrop Combi (small cassette, Thermo Fisher Scientific cat #24073290) and incubated 60 minutes at room temperature in the dark. Fluorescence signal was detected using an Envision plate reader (Perkin Elmer) [LANCE/DELFIA Dual Enh (Em: APC 665; Ex: Cy5 620)].
For each compound, data were fit to a four parameter logistic fit (ActivityBase software) and the EC50 was reported as the inflection point of the resulting curve. Percent effect for each test compound was determined as the percentage of sample raw value/mean max effect, where the mean max effect was derived from the mean raw value of 32 control wells per assay plate (using Orexin A (cat #003-30) at 1 μM for human OX1R and a reference compound at 1 uM with 100% activity previously established by comparison to Orexin A for human OX2R). The intrinsic orexin receptor agonist activity of a compound which may be used in the present invention may be determined by these assays.

In the case of `COC(=O)N1[C@H](C)CC(c2ccn[nH]2)[C@@H]1CO[C@H]1CC[C@@H](c2ccccc2)CC1` (stereo partly drawn) [Example 37, Methyl (2R,5R)-5-methyl-2-((((CIS)-4-phenylcyclohexyl)oxy)methyl)-3-(1H-pyrazol-5-yl)pyrrolidine-1-carboxylate], the EC50 (as a rule, the concentration needed to bring the measured effect to its halfway point) was found to be 5.11 µM and the “% of reference agonist maximal effect” value was determined as 85.3%.

As to `COC(=O)N1CCC[C@@H](c2n[nH]cc2C#N)[C@H]1CO[C@H]1CC[C@@H](c2ccccc2)CC1` (single isomer, unassigned) [Example 52], the EC50 is more than 10 µM and the “% of reference agonist maximal effect” value is 0%.

With `COC(=O)N1CCC[C@@H](c2n[nH]cc2C(F)F)[C@H]1CO[C@H]1CC[C@@H](c2ccccc2)CC1` [Example 56, Methyl (2S,3R)-3-(4-(difluoromethyl)-pH-pyrazol-3-yl)-2-((((CIS)-4-phenylcyclohexyl)oxy)methyl) piperidine-1-carboxylate], the concentration for a half-maximal effect (EC50) was determined as 3.07 µM and the “% of reference agonist maximal effect” value was 66.9%.

As for `C#C[C@H](C)OC(=O)N1CCC[C@H](c2cc[nH]n2)[C@@H]1CO[C@H]1CC[C@@H](c2ccccc2)CC1` [Example 115, (S)-but-3-yn-2-yl (CIS)-2-((((CIS)-4-phenylcyclohexyl)oxy)methyl)-3-(1H-pyrazol-3-yl)piperidine-1-carboxylate], the EC50 was determined as 7.47 µM and the “% of reference agonist maximal effect” value was 51.4%.

For `CC(=O)COC(=O)N1CCC[C@H](c2cc[nH]n2)[C@@H]1CO[C@H]1CC[C@@H](c2ccccc2)CC1` (relative stereo) [Example 97, 2-oxopropyl (CIS)-2-((((CIS)-4-phenylcyclohexyl)oxy)methyl)-3-(1H-pyrazol-3-yl)piperidine-1-carboxylate], the EC50 was 0.892 µM and the “% of reference agonist maximal effect” value is 99.1%.

On to `COC(=O)N1CCC[C@H](c2cccc(O)n2)[C@@H]1CO[C@H]1CC[C@@H](c2ccccc2)CC1` (relative stereo) [Example 64, Methyl (CIS)-3-(6-hydroxypyridin-2-yl)-2-((((CIS)-4-phenylcyclohexyl)oxy)methyl)piperidine-1-carboxylate], for which the EC50 came out at 3.06 µM and the “% of reference agonist maximal effect” value is 68.1%.

As for `COC(=O)N1CCC[C@@H](c2n[nH]cc2CO)[C@H]1CO[C@H]1CC[C@@H](c2ccccc2)CC1` (single isomer, unassigned) [Example 54], the EC50 is more than 10 µM and the “% of reference agonist maximal effect” value was 15.7%.

As for `C#CCCCC(=O)N1CCC[C@H](c2cc[nH]n2)[C@@H]1CO[C@H]1CC[C@@H](C(C)C)CC1` (relative stereo) [Example 86, 1-((CIS)-2-((((CIS)-4-isopropylcyclohexyl)oxy)methyl)-3-(1H-pyrazol-3-yl)piperidin-1-yl)hex-5-yn-1-one], the EC50 came to 8.39 µM and the “% of reference agonist maximal effect” value was 64.7%.

With `COC(=O)N1CCC[C@@H](c2csc(O)n2)[C@H]1CO[C@H]1CC[C@@H](c2ccccc2)CC1` (relative stereo) [Example 65], the EC50 was determined as 0.174 µM and the “% of reference agonist maximal effect” value was 98.1%.

As to `O=C(C1CC1(F)F)N1CCC[C@H](c2cc[nH]n2)[C@@H]1CO[C@H]1CC[C@@H](c2ccccc2)CC1` (relative stereo) [Example 92, (2,2-difluorocyclopropyl)((CIS)-2-((((CIS)-4-phenylcyclohexyl)oxy)methyl)-3-(1H-pyrazol-3-yl)piperidin-1-yl)methanone], the concentration for a half-maximal effect (EC50) is 6.9 µM and the “% of reference agonist maximal effect” value was determined as 88.6%.

Turning to `O=C(OCCF)N1CCC[C@H](c2cc[nH]n2)[C@@H]1CO[C@H]1CC[C@@H](c2ccccc2)CC1` (relative stereo) [Example 111, 2-fluoroethyl (CIS)-2-((((CIS)-4-phenylcyclohexyl)oxy)methyl)-3-(1H-pyrazol-3-yl)piperidine-1-carboxylate], the EC50 was found to be 6.29 µM and the “% of reference agonist maximal effect” value is 78.4%.

For the molecule `COC(=O)N1C[C@@H](C)C[C@@H](c2ccn[nH]2)[C@@H]1CO[C@H]1CC[C@@H](c2ccccc2)CC1` (racemic) [Example 40, (+/−) methyl (2R,3R,5S)-5-methyl-2-((((CIS)-4-phenylcyclohexyl)oxy)methyl)-3-(1H-pyrazol-5-yl)piperidine-1-carboxylate], the EC50 came to 1.63 µM and the “% of reference agonist maximal effect” value worked out at 95.8%.

For the molecule `COC(=O)N1CCC[C@H](c2n[nH]cc2Cl)[C@@H]1CO[C@H]1CC[C@@H](c2ccccc2)CC1` (single isomer, unassigned) [Example 45], the EC50 came out at 0.0794 µM and the “% of reference agonist maximal effect” value worked out at 100.2%.

In the case of `CCC(=O)N1CCC[C@H](c2cc[nH]n2)[C@@H]1CO[C@H]1CC[C@@H](C(C)C)CC1` (relative stereo) [Example 82, 1-((CIS)-2-((((CIS)-4-isopropylcyclohexyl)oxy)methyl)-3-(1H-pyrazol-3-yl)piperidin-1-yl)propan-1-one], the EC50 came to 5.74 µM and the “% of reference agonist maximal effect” value stood at 98.1%.

As to `CCNC(=O)N1CCC[C@@H](c2n[nH]cc2C)[C@H]1CO[C@H]1CC[C@@H](c2cccc(F)c2)CC1` (single isomer, unassigned) [Example 12], the EC50 is 0.414 µM and the “% of reference agonist maximal effect” value was found to be 100.0%.

As for `COCCCOC(=O)N1CCC[C@H](c2cc[nH]n2)[C@@H]1CO[C@H]1CC[C@@H](c2ccccc2)CC1` (relative stereo) [Example 118, 3-methoxypropyl (CIS)-2-((((CIS)-4-phenylcyclohexyl)oxy)methyl)-3-(1H-pyrazol-3-yl)piperidine-1-carboxylate], the concentration giving a half-maximal response (EC50) came to 8.96 µM and the “% of reference agonist maximal effect” value is on record as 47.9%.

As for `O=C(C1CC1)N1CCC[C@H](c2cc[nH]n2)[C@@H]1CO[C@H]1CC[C@@H](c2ccccc2)CC1` (single isomer, unassigned) [Example 71, cyclopropyl((CIS)-2-((((CIS)-4-phenylcyclohexyl)oxy)methyl)-3-(1H-pyrazol-3-yl)piperidin-1-yl)methanone], the EC50 is 0.457 µM and the “% of reference agonist maximal effect” value is given as 82.9%.

As for `COC(=O)N1CCC[C@H](c2n[nH]cc2C#N)[C@@H]1CO[C@H]1CC[C@@H](c2ccccc2)CC1` (single isomer, unassigned) [Example 51], the EC50 stood at 0.227 µM and the “% of reference agonist maximal effect” value worked out at 99.0%.

Regarding `CCNC(=O)N1CC[C@H](c2cc[nH]n2)[C@@H]1CO[C@H]1CC[C@@H](c2ccccc2)CC1` (relative stereo) [Example 28, (CIS)-N-ethyl-2-((((CIS)-4-phenylcyclohexyl)ox)methyl)-3-(1H-pyrazol-3-yl)pyrrolidine-1-carboxamide], the EC50 was found to be 5.96 µM and the “% of reference agonist maximal effect” value is 22.9%.
